# According to ChEMBL document CHEMBL1201862, “PubChem BioAssay data set” (2004):
# Activity calls are given as the source filed them.
# What was measured:
# [1] = target: T1, Apoptotic protease-activating factor 1 (Homo sapiens, UniProt O14727); assay: SAR analysis of small molecule Activators of Apaf-1 in a Fluorescent assay - set 2.; format: functional; conditions: read-out: EC50_Mean
# T1 sequence (O14727 whole entry): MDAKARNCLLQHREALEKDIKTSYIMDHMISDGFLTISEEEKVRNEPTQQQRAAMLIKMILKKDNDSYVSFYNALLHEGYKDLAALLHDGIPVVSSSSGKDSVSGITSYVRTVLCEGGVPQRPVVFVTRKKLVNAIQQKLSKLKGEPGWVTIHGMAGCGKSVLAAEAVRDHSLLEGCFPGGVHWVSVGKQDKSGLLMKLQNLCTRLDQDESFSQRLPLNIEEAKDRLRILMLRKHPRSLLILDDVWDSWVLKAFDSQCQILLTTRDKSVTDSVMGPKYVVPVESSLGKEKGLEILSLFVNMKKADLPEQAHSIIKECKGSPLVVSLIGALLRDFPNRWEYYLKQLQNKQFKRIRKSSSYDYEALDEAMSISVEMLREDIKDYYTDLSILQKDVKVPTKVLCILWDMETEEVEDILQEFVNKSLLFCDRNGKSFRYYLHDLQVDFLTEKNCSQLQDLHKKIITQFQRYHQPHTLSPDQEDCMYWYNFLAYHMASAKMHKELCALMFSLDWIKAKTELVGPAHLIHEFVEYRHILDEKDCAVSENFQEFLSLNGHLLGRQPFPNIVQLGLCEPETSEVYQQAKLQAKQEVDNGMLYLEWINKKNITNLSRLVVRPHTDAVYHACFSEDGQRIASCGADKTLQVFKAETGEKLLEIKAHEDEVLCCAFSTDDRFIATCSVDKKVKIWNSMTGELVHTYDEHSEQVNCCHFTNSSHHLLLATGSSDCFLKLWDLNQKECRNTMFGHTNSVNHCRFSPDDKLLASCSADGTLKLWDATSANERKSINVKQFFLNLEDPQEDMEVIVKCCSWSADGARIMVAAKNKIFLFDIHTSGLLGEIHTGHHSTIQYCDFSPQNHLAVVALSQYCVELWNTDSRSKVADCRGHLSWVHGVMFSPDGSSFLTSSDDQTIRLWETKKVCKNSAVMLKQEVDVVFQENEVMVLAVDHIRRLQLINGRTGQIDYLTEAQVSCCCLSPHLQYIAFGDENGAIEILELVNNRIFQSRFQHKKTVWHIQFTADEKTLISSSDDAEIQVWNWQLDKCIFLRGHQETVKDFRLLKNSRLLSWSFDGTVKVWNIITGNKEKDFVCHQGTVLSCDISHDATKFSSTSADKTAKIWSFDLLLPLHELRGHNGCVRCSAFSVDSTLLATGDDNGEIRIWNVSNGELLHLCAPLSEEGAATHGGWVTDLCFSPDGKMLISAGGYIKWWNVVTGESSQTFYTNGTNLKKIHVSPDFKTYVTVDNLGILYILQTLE
# [2] = SAR analysis of small molecule activators of Apaf-1 using a LZ-Caspase-9/Caspase-3 Fluorescent Selectivity assay - Set 2.; format: functional; conditions: read-out: EC50_Mean
structure (smiles),measurement,setting,value
COc1cc(OC)c(C2=NOC(C(=O)O)C2)cc1Cl (configuration not stated),EC50,[1],> 100 µM (inactive)
same,EC50,[2],> 100 µM (inactive)
